In ChEMBL document CHEMBL1139192, “Novel bis(indolyl)maleimide pyridinophanes that are potent, selective inhibitors of glycogen synthase kinase-3” (Bioorg Med Chem Lett, 2007):

Key:
[1] = molecular target: T1, Dual specificity mitogen-activated protein kinase kinase 6 (Homo sapiens) (UniProt P52564); test: Inhibition of human MKK6 at 1 uM relative to control; values are per cent of control
T1 sequence (whole entry): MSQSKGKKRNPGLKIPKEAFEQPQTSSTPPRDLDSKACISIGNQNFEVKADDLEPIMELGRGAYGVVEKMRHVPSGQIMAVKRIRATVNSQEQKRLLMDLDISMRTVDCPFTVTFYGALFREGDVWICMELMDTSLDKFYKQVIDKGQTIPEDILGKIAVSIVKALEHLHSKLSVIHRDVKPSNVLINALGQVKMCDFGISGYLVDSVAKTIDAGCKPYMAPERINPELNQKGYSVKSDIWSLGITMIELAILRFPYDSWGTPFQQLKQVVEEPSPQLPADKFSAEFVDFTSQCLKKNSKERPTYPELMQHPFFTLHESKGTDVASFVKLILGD

[2] = molecular target: Tyrosine-protein kinase BTK (Homo sapiens) (UniProt Q06187); test: Inhibition of human BTK at 1 uM relative to control; values are per cent of control
Tyrosine-protein kinase BTK (Homo sapiens), sequence (Q06187 whole entry): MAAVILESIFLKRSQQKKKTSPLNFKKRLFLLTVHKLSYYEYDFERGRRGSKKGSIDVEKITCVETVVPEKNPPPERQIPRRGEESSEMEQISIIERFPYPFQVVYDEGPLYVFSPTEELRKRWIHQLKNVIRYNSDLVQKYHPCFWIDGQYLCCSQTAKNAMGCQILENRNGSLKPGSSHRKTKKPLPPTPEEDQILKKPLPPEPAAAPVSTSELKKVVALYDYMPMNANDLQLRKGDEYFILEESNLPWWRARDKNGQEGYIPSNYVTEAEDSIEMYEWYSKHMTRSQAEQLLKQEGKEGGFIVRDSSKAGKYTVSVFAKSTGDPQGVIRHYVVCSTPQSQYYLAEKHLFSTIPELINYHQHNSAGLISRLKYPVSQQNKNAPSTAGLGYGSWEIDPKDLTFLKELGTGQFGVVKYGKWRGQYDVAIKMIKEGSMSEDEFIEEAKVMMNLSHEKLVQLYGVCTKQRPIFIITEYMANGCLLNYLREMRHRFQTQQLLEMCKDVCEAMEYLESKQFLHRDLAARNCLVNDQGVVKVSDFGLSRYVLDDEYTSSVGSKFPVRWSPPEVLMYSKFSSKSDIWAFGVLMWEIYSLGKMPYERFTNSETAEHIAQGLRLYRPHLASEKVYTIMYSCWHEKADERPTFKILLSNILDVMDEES

[3] = molecular target: T2, Mitogen-activated protein kinase 12 (Homo sapiens) (UniProt P53778); test: Inhibition of human SAPK3 at 1 uM relative to control; values are per cent of control
T2 sequence (whole entry): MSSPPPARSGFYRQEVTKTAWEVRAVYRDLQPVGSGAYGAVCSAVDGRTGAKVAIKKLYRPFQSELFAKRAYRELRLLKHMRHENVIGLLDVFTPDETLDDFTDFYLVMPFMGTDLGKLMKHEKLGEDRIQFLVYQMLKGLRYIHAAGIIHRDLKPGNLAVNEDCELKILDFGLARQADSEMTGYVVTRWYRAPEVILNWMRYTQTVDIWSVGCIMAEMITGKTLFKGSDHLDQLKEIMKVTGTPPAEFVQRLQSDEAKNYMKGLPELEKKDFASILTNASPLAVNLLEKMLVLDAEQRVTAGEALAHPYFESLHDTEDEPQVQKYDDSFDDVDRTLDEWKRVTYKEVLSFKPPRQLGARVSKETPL

[4] = molecular target: Protein kinase C beta type (Homo sapiens, UniProt P05771); test: Inhibition of human recombinant PKCbeta2
Protein kinase C beta type, sequence (P05771 whole entry): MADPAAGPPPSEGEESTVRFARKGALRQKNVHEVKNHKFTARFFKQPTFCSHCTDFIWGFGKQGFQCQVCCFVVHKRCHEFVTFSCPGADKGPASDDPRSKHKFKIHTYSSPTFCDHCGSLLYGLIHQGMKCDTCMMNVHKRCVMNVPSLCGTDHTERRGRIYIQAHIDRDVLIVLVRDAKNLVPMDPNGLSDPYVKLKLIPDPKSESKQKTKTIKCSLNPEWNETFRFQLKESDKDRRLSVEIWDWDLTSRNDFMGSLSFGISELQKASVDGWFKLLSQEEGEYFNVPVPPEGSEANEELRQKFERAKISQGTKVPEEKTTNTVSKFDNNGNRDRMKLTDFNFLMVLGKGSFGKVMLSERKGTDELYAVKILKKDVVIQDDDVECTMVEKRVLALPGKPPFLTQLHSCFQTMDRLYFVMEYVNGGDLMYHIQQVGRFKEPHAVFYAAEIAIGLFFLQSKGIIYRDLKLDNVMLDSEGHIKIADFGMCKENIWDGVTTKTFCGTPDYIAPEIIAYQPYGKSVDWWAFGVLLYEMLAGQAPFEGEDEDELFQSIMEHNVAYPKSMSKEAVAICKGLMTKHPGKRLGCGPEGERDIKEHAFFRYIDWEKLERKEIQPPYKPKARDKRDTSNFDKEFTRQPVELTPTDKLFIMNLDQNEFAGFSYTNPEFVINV

[5] = molecular target: Ribosomal protein S6 kinase alpha-3 (Homo sapiens) (UniProt P51812); test: Inhibition of human Rsk3 at 1 uM relative to control; values are per cent of control
[6] = molecular target: Tyrosine-protein kinase CSK (Homo sapiens) (UniProt P41240); test: Inhibition of human CSK at 1 uM relative to control; values are per cent of control
Tyrosine-protein kinase CSK (Homo sapiens), sequence (P41240 2-450 limits assumed): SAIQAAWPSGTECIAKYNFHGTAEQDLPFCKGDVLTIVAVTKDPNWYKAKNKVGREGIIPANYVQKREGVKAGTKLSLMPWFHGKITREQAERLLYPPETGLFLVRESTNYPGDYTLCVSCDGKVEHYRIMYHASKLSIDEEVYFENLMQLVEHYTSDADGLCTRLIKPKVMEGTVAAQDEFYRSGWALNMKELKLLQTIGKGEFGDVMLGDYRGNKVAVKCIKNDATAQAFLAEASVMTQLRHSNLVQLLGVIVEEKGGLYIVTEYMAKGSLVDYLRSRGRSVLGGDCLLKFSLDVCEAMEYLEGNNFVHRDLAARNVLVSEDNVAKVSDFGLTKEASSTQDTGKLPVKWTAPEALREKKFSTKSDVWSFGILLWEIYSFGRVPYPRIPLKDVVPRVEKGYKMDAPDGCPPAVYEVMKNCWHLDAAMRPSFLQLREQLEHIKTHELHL

[7] = molecular target: Serine/threonine-protein kinase Chk2 (Homo sapiens) (UniProt O96017); test: Inhibition of human CHK2 at 1 uM relative to control; values are per cent of control
[8] = molecular target: T3, Aurora kinase A (Homo sapiens) (UniProt O14965); test: Residual activity of human Aurora A at 1 uM relative to control
T3 sequence (whole entry): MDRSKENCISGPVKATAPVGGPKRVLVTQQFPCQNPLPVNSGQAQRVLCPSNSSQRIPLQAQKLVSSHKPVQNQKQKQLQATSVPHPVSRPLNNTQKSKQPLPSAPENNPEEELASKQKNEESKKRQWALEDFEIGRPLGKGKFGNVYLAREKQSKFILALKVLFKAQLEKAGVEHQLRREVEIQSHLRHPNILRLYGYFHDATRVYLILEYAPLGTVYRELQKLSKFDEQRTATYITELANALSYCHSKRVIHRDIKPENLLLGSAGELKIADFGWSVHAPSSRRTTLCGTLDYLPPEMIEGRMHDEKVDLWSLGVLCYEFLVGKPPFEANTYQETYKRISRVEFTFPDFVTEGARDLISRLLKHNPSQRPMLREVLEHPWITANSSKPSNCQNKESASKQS

[9] = species on record: Rattus norvegicus; test: Inhibition of rat AMPK at 1 uM relative to control; values are per cent of control
[10] = molecular target: Ribosomal protein S6 kinase beta-1 (Homo sapiens) (UniProt P23443); test: Inhibition of human p70S6K at 1 uM relative to control; values are per cent of control
Ribosomal protein S6 kinase beta-1 (Homo sapiens), sequence (P23443 whole entry, looked up): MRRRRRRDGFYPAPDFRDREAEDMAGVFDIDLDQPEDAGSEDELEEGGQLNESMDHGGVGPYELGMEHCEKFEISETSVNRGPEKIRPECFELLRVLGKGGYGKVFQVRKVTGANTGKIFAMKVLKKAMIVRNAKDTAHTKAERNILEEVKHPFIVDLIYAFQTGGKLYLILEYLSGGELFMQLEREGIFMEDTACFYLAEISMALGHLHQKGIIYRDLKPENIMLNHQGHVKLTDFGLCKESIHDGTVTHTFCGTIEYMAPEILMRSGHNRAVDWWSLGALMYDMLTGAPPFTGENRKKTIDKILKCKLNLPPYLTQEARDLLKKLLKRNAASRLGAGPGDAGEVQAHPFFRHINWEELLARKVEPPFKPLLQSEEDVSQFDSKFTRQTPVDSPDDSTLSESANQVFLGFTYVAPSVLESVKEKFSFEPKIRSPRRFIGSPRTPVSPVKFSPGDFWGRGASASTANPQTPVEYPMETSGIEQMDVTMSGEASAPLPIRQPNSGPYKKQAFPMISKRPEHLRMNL

[11] = molecular target: Tyrosine-protein kinase Lck (Homo sapiens) (UniProt P06239); test: Inhibition of human Lck at 1 uM relative to control; values are per cent of control
Tyrosine-protein kinase Lck (Homo sapiens), sequence (P06239 2-509 limits assumed): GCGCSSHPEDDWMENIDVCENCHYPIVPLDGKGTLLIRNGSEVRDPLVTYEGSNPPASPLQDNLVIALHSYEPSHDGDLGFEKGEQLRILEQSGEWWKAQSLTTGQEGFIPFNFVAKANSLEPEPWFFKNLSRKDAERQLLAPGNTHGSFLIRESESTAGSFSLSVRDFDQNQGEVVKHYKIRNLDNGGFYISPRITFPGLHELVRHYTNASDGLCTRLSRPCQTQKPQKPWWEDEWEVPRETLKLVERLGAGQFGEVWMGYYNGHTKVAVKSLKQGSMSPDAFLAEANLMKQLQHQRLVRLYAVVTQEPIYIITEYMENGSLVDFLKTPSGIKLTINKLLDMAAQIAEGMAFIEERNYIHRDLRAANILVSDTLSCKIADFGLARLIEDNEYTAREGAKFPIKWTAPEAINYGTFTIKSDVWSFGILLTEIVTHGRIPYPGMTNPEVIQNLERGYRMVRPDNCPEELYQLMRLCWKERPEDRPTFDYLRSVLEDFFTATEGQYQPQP

[12] = molecular target: Epidermal growth factor receptor (Homo sapiens) (UniProt P00533); test: Inhibition of human EGFR at 1 uM relative to control; values are per cent of control
Epidermal growth factor receptor (Homo sapiens), sequence (P00533 whole entry): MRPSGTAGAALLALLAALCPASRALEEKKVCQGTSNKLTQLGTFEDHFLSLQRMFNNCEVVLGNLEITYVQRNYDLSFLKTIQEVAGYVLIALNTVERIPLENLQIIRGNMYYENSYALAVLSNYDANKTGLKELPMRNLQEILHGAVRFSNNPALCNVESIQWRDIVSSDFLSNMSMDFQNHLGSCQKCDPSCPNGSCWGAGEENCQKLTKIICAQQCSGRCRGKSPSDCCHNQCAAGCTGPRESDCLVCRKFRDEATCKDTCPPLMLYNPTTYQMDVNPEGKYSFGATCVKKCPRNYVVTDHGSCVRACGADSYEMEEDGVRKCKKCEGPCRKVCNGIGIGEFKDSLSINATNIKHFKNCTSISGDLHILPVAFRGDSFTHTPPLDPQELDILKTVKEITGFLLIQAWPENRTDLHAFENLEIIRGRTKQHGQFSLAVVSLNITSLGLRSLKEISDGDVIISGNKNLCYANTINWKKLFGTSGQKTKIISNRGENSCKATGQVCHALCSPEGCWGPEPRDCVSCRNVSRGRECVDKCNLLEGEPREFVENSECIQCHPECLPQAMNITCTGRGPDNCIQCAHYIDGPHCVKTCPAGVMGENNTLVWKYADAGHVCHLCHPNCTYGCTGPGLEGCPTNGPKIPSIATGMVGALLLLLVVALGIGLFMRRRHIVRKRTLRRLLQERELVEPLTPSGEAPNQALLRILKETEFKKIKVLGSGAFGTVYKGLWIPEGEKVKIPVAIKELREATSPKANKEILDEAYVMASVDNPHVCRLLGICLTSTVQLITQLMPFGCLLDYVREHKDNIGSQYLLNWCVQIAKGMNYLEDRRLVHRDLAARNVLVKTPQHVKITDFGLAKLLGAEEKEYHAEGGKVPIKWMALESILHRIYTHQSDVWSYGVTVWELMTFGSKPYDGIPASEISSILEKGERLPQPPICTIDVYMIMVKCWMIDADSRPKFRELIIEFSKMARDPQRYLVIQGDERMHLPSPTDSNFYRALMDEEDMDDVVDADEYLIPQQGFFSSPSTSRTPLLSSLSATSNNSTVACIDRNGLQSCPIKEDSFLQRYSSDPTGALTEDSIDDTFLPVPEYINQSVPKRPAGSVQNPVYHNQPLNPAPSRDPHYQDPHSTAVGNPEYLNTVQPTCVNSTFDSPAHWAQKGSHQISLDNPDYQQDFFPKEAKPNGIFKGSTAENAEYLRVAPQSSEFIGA

[13] = molecular target: Tyrosine-protein kinase Fyn (Homo sapiens) (UniProt P06241); test: Inhibition of human Fyn at 1 uM relative to control; values are per cent of control
Tyrosine-protein kinase Fyn (Homo sapiens), sequence (P06241 2-537 limits assumed): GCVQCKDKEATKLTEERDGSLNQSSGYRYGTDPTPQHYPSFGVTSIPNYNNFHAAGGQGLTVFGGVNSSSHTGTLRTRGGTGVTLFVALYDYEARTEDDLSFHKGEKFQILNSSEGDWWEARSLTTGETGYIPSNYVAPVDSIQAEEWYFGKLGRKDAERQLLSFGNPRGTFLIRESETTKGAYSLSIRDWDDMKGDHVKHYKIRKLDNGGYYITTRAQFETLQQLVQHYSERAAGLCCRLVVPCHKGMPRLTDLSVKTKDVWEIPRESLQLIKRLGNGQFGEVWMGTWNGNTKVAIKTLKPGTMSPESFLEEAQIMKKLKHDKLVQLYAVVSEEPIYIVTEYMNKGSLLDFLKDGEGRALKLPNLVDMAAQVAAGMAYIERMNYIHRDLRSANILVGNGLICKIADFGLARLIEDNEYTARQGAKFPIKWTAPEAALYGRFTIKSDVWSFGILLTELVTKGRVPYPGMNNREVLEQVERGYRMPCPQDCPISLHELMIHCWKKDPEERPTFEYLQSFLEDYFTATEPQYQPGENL

[14] = molecular target: T4, Serine/threonine-protein kinase 3 (Homo sapiens) (UniProt Q13188); test: Inhibition of human MST2 at 1 uM relative to control; values are per cent of control
T4 sequence (whole entry): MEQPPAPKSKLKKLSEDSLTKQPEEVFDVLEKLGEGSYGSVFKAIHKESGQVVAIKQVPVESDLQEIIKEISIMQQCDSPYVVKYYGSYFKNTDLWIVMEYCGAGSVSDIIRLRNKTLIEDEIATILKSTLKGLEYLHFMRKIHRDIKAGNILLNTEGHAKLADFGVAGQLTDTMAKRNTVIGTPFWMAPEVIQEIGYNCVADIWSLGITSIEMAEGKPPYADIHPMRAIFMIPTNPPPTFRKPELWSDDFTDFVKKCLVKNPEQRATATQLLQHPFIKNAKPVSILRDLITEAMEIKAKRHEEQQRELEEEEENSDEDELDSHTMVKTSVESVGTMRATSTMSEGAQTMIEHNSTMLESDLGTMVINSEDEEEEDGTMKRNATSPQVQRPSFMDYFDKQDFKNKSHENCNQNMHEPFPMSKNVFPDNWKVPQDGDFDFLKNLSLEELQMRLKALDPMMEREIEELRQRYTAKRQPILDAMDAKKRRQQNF

residual activity [1] | residual activity [2] | residual activity [3] | IC50 [4] | residual activity [5] | residual activity [6] | residual activity [7] | residual activity [8] | residual activity [9] | residual activity [10] | residual activity [11] | residual activity [12] | residual activity [13] | residual activity [14] | Structure (SMILES)
102% | 105% | 78% | 1400 nM | 33% | 95% | 91% | 109% | 101% | 98% | 96% | 94% | 103% | 103% | CN(C)c1nc2ccc1CCCn1cc(c3ccccc31)C1=C(C(=O)NC1=O)c1cn(c3ccccc13)CC2
86% | 106% | 115% | 2400 nM | 5% | 133% | 94% | 111% | 101% | 91% | 100% | 96% | 106% | 84% | CN(C)c1cc2cc(n1)CCCn1cc(c3ccccc31)C1=C(C(=O)NC1=O)c1cn(c3ccccc13)CCC2
85% | 104% | 114% | 2200 nM | 25% | 129% | 91% | 106% | 99% | 84% | 90% | 104% | 103% | 86% | O=C1NC(=O)C2=C1c1cn(c3ccccc13)CCCc1ccc(c(N3CCCC3)n1)CCCn1cc2c2ccccc21
91% | 106% | 103% | 1200 nM | 5% | 125% | 84% | 111% | 105% | 95% | 99% | 108% | 106% | 100% | O=C1NC(=O)C2=C1c1cn(c3ccccc13)CCCc1cc(nc(N3CCCC3)c1)CCCn1cc2c2ccccc21
